Experiment [1] in a line: Binding affinity against […] adrenergic receptor.
Assay in experiment [2]: as above
The source holds these as a separate data set.

pIC50: −log10 of the molar value.

Turning to `CN(C)CC1CC2c3cccnc3Cc3ccccc3N2O1` (centres undefined), in experiment [1], the pIC50 is greater than 6.00.

In the case of `CN(C)CC1CC2c3ccccc3Cc3ccncc3N2O1` (centres undefined), in experiment [1], the pIC50 was greater than 6.00.

Turning to `CN(C)C[C@@H]1C[C@@H]2c3ccccc3Cc3ccccc3N2O1` [Dimethyl-[(2S,3aR)-1-(2,3,3a,8-tetrahydro-1-oxa-12b-aza-dibenzo[e,h]azulen-2-yl)methyl]-amine], in experiment [2], the pIC50 was 5.73.

`CN(C)CC1CC2c3ccccc3Cc3ccc(Cl)cc3N2O1` (centres undefined) had a pIC50 in experiment [2] of 6.06.

The pIC50 is the IC50 on a negative log10 scale, so that one unit is a factor of ten. Lower therefore signals a large IC50.

Values taken from BindingDB's records for doi:10.1016/s0960-894x(02)00796-5 (Janssen-Cilag, 2002).
